Laboratory results taken from US11976083B2, “Inhibitors of peptidylarginine deiminases” (Gilead Sciences, Inc., priority 2020, dated 2024).
pIC50: −log10 of the molar value.

Biological target: T1, human PAD4 (Homo sapiens, UniProt Q9UM07)
T1 construct: human PAD4 (NM_012387), A2-P663, was PCR amplified; His-SUMO (N, cleaved yes); made in house; host or cells: E. coli BL21(DE3)
Experiment: In vitro PAD4 BAEE biochemical assay
Conditions: BAEE substrate 3 mM, 5 nM PAD4, 2 mM calcium chloride; geometric mean of multiple experiments
Procedure, shortened: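 PAD4 5 nM, CaCl2 2 mM, BAEE 3 mM final; 50 mM MOPS pH 7.6, 50 mM NaCl, 0.05% Tween-20, 2 mM DTT. Cpd + enzyme 30 min 25 °C; substrate 2 h 25 °C; EDTA stop; OPA detection 1 h. IC50 4-parameter fit.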

T1 sequence (Q9UM07 2-663): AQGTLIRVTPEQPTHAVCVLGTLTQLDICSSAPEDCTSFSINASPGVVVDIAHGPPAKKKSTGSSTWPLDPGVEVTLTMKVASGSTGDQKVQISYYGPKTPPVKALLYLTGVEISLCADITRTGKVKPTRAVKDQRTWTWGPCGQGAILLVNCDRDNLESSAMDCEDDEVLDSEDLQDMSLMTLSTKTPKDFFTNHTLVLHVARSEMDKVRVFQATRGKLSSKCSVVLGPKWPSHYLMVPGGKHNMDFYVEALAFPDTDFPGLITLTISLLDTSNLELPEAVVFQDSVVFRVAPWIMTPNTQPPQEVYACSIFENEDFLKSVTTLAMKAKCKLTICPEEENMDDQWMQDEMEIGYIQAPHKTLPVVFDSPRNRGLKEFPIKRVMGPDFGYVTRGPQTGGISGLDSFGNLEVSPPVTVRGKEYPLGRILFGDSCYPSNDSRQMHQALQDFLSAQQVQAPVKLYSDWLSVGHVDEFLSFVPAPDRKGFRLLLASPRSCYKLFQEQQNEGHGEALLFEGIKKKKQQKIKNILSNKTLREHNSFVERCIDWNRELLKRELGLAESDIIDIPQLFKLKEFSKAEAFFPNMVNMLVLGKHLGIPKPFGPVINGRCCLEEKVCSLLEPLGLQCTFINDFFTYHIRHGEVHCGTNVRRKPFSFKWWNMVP

SMILES	pIC50
COc1cc(C(=O)N2CC[C@@H](OC)[C@@H](N)C2)cc2nc(-c3cc4ccc5nc4n3CC(F)(F)CCCC[C@@](C)(C(F)(F)F)C(=O)N[C@@H]5C)n(C)c12 [Example 727, (8~{R},11~{R})-17-[5-[(3~{S), 4~{R})-3-amino-4-methoxy-piperidine-1-carbonyl]-7-methoxy-1-methyl-benzimidazol-2-yl]-3,3-difluoro-8,11-dimethyl-8-(trifluoromethyl)-1,10,19-triazatricyclo[10.5.2.0^ {15,18}]nonadeca-12(19),13,15(18),16-tetraen-9-one]	7.03
COc1cc(C(=O)N2[C@H]3CC[C@@H]2[C@H](N)C3)cc2nc(-c3cc4ccc5nc4n3CCC3(CC3)COCCC(=O)N[C@@H]5C)c(C)n12 [Example 331, (11~{R})-17-[7-[(1~{R},2~{R},4~{S})-2-amino-7-azabicyclo[2.2.1]heptane-7-carbonyl]-5-methoxy-3-methyl-imidazo[1,2-a]pyridin-2-yl]-11-methyl-spiro[6-oxa-1,10,19-triazatricyclo[10.5.2.0^{15,18}]nonadeca-12(19),13,15(18),16-tetraene-4,1′-cyclopropane]-9-one]	7.16
Cc1cc2c(cc1C(=O)N[C@H]1CNCC[C@@H]1F)nc(-c1cc3ccc4nc3n1CC(F)(F)/C=C/C[C@H]1C[C@@H]1C(=O)N[C@@H]4C)n2C [Example 550, 2-[(2~{R},5~{S},7~ {S},9~{E})-11,11-difluoro-2-methyl-4-oxo-3,13,19-triazatetracyclo [11.5.2.0^{5,7}.0^{16,20}]icosa-1(19),9,14,16(20), 17-pentaen-14-yl]-~{N}-[(3~{S},4~{S})-4-fluoro-3-piperidyl]-1,6-dimethyl-benzimidazole-5-carboxamide]	7.22
COc1cc(C(=O)N2CC[C@@H](OC)[C@@H](N)C2)cc2nc(-c3cc4ccc5cc4n3CCCCCc3nccnc3C(=O)N[C@@H]5C)n(C)c12 [Example 576, (2~{R})-17-[5-[(3~{S},4~ {R})-3-amino-4-methoxy-piperidine-1-carbonyl]-7-methoxy-1-methyl-benzimidazol-2-yl]-2-methyl-3,6,9,16-tetrazatetracyclo[14.5.2.0^ {5,10}.0^{19,23}] tricosa-1(22),5(10),6,8,17, 19(23),20-heptaen-4-one]	7.17
COc1cc(C(=O)N2[C@H]3CC[C@@H]2[C@H](N)C3)cc2nc(-c3cc4ccc5nc4n3CCCCCCC(C)(C)C(=O)N[C@@H]5C)n(C)c12 [Example 20, (11~{R})-17-[5-[(1~{R},2~{R},4~{S})-2-amino-7-azabicyclo[2.2.1]heptane-7-carbonyl]-7-methoxy-1-methyl-benzimidazol-2-yl]-8,8,11-trimethyl-1,10,19-triazatricyclo[10.5.2.0^{15,18}]nonadeca-12(19),13,15(18),16-tetraen-9-one]	7.21
C[C@H]1NC(=O)C(C)(C)CCCCCCn2c(-c3nc4cc(C(=O)N[C@H]5CNCC[C@@H]5F)ccc4n3C)cc3ccc1nc32 [Example 500, ~{N}-[(3~{S},4~ {S})-4-fluoro-3-piperidyl]-1-methyl-2-[(11~{R})-8,8,11-trimethyl-9-oxo-1,10,19-triazatricyclo[10.5.2.0^ {15,18}]nonadeca-12(19), 13,15(18),16-tetraen-17-yl]benzimidazole-5-carboxamide]	7.05
COc1cc(C(=O)N2CC[C@@H](OC)[C@@H](N)C2)cc2nc(-c3cc4ccc5nc4n3CCC/C=C/c3ccc(Cl)nc3C(=O)N[C@@H]5C)n(C)c12 [Example 781, (2~{R},11~{E})-17-[5-[(3~ {S},4~{R})-3-amino-4-methoxy-piperidine-1-carbonyl]-7-methoxy-1-methyl-benzimidazol-2-yl]-7-chloro-2-methyl-3,6,16,22-tetrazatetracyclo[14.5.2.0^ {5,10}.0^{19,23}]tricosa-1(21),5(10),6,8,11,17,19,22-octaen-4-one]	7.14

Second part, the molecule after the results:

pIC50	SMILES
7.62	C[C@H]1NC(=O)[C@@H]2C[C@H]2CCCCCn2c(-c3nc4cc(C(=O)N[C@H]5CNCC[C@@H]5F)c(F)c(F)c4n3C3CC3)cc3ccc1nc32 (single isomer, unassigned) [Example 275, 1-cyclopropyl-6,7-difluoro-˜{N}-[(3˜{S},4˜{S})-4-fluoro-3-piperidyl]-2-[(2˜{R},5˜{R},7˜{R})-2-methyl-4-oxo-3,13,19-triazatetracyclo[11.5.2.0^{5,7}.0^{16,20}]icosa-1(19),14,16(20),17-tetraen-14-yl]benzimidazole-5-carboxamide]
7.72	COc1cc(C(=O)N2C[C@H](N)[C@@H]3CC[C@H]2C3)cc2nc(-c3cc4ccc5nc4n3CCCCC[C@]3(F)C[C@H]3C(=O)N[C@@H]5C)n(C3CC3)c12 [Example 816, (2~{R},5~{S},7~{S})-14-[5-[(1~{S},4~{R},5~{R})-4-amino-2-azabicyclo[3.2.1]octane-2-carbonyl]-1-cyclopropyl-7-methoxy-benzimidazol-2-yl]-7-fluoro-2-methyl-3,13,19-triazatetracyclo[11.5.2.0^ {5,7}.0^{16,20}]icosa-1 (18),14,16,19-tetraen-4-one]
7.89	COc1cc(C(=O)N2C[C@H](N)[C@@H]3CC[C@H]2C3)cc2nc(-c3cc4ccc5nc4n3CCCCCC[C@@H](c3ccccn3)C(=O)N[C@@H]5C)n(C)c12 [Example 891, (8~{S),11~{R})-17-[5-[(1~{S},4~{R},5~{R})-4-amino-2-azabicyclo[3.2.1]octane-2-carbonyl]-7-methoxy-1-methyl-benzimidazol-2-yl]-11-methyl-8-(2-pyridyl)-1,10,19-triazatricyclo[10.5.2.0^ {15,18}]nonadeca-12(19), 13,15(18),16-tetraen-9-one]
7.68	C[C@H]1NC(=O)[C@@H]2C[C@@]2(F)CCCCCn2c(-c3nc4cc(C(=O)N5C[C@H](N)[C@@H]6CC[C@H]5C6)cc(F)c4n3C3CC3)cc3ccc1nc32 [Example 450, (2~{R},5~{S},7~{S})-14-[5-[(1~{S},4~{R},5~{R})-4-amino-2-azabicyclo[3.2.1]octane-2-carbonyl]-1-cyclopropyl-7-fluoro-benzimidazol-2-yl]-7-fluoro-2-methyl-3,13,19-triazatetracyclo[11.5.2.0^{5,7}.0^{16,20}] icosa-1(19),14,16(20),17-tetraen-4-one]
7.54	C[C@H]1NC(=O)[C@H]2[C@H](CCCCCn3c(-c4nc5cc(C(=O)N6C[C@H](N)[C@@H]7CC[C@H]6C7)cc(F)c5n4C4CC4)cc4ccc1nc43)C2(F)F [Example 775, (2~{R},5~{R},7~{S})-14-[5-[(1~{S},4~{R},5~{R})-4-amino-2-azabicyclo[3.2.1]octane-2-carbonyl]-1-cyclopropyl-7-fluoro-benzimidazol-2-yl]-6,6-difluoro-2-methyl-3,13,19-triazatetracyclo[11.5.2.0^ {5,7).0^{16,20}]icosa-1(19),14,16(20),17-tetraen-4-one]
7.49	COc1cc(C(=O)N2C[C@H](N)[C@@H]3CC[C@H]2C3)cc2nc(-c3cc4ccc5nc4n3CCCCCc3ccccc3C(=O)N[C@@H]5C)n(C)c12 [Example 439, (2˜{R})-17-[5-[(1˜{S},4˜{R},5˜{R})-4-amino-2-azabicyclo[3.2.1]octane-2-carbonyl]-7-methoxy-1-methyl-benzimidazol-2-yl]-2-methyl-3,16,22-triazatetracyclo[14.5.2.0^{5,10}.0^{19,23}]tricosa-1(22),5(10),6,8,17,19(23),20-heptaen-4-one]
